The test system of assay [1] is bone resorption due to parathyroid hormone (PTH). The assay can be described thus: Serum calcium in TPTX rats with hypercalcemia by continuous PTH infusion. Particulars: for increase in the level of serum calcium due to PTH: 80 mg/kg, TPTX SD rats, administered 12 hours after start of PTH, followed 24 hours; for duration of inhibitory action on bone resorption: comparison of calcitonin with reveromycin A derivatives. In kind it is in vivo, SD rats. Here is the method:
The bone resorption inhibitory effects of the reveromycin A derivatives were examined by measuring the level of serum calcium released in the blood by the action of bone resorption. SD rats were subjected to an operation of extracting the thyroid glands and the parathyroid glands (TPTX). Next day, a decrease in serum calcium was confirmed and then the continuous infusion of the parathyroid hormone (PTH) was carried out, thereby creating rats each having hypercalcemia by accelerating the bone resorption.
At 12 hours from the initiation of PTH injection, the reveromycin A derivatives ([…]) or a sodium salt thereof ([…]) were administered and the level of serum calcium was then measured in time-course for 24 hours.

The subject of assay [2] is anterior limb long bone, bone resorption induced by PTH, IL-1 or vitamin D3. The assay can be described thus: Inhibition of 45Ca liberation (bone resorption activity) from cultured fetal long bone. Particulars: 72 hours culture; for inhibition of bone resorption induced by the PTH: 10^−8M, 10^−7M and 10^−6M, PTH 10^−8M; for inhibition of bone resorption due to vitamin D3 or IL-1: IL-1 0.3 ng/ml, vitamin D3 10^−8M. In kind it is cell-based, rat. How it is done: The effects of the reveromycin A derivatives on the facilitation of the bone resorption due to the parathyroid hormone (PTH) were measured.
A19-day pregnant rat was subjected to the hypodermic injection of [^45Ca]CaCl2 to label a fetal bone. After 24 hours, the anterior limb long bone was extracted. For an anterior limb long bone, a Dulbecco-modified Eagle medium (DMEM) containing 15% heat-inactivated horse serum and 100 U/ml penicillin was used as a culture medium and then incubated for 72 hours together with a bone resorption factor (PTH 10^−8M, IL-1 0.3 ng/ml, vitamin D3 10^−8M) and the reveromycin A derivatives. After incubation, ^45Ca radioactivities in a solution into which calcium of the bone was eluted by 0.1 N HCl and in the culture solution were measured using a liquid scintillation counter. The ratio of the amount of calcium released into the culture solution to the total amount of calcium (bone resorption activity (%)) was used as an indicator and the effects of the reveromycin A derivatives on the facilitation of the bone resorption due to the PTH was investigated. • Bone resorption activity (%)=100×Amount of ^45Ca released into culture solution/(Amount of ^45Ca released into culture solution+Amount of ^45Ca left in bone)

Assay [3] relates to mature osteoclasts. The assay can be described thus: Cell-death (apoptosis) inducing activity on mature osteoclasts, number of TRAP-stained multinuclear cells. In kind it is cell-based, mouse. Particulars: for EC50: Mus musculus, Osteoclast, RAW264-derived mature osteoclasts, 24 hours incubation, TRAP staining, read-out: ED50 level of cell-death inducing activity to mature osteoclasts, Number of cells; for selective apoptosis inducing effect on the mature osteoclasts: in words. How it is done:
Using 29 different reveromycin A derivatives synthesized as described above, the cell-death inducing activities on the mature osteoclasts and undifferentiated macrophage-like cells derived from a mouse (RAW264 cells) were examined, respectively. The RAW264 cells, a mouse-macrophage cell line, were suspended in a 10% FBS-αMEM (manufactured by Gibco BRL Co., Ltd.) and then 12,000 cells/100 μl were inoculated in a 96-well plate. After 1-hour incubation, 100 μl of a culture medium containing RANKL ([…]) and PD98059 (40 μM) were added (final concentration: RANKL […] and PD98059 20 μM) and then incubated for 4 days to allow the differentiation of the cells to mature osteoclasts (J. Biol. Chem. Vol. 277, pp. 47366-47372 (2002)). Furthermore, on the second day of the culture, the half of the culture medium was replaced with new one. From each well of the plate where the cells were differentiated to the mature osteoclasts, 100 μl/well of the culture medium was removed. […] The apoptosis inducing activity was confirmed by the observation of agglutination of nuclei stained with 10 μM Hoechst 33258 for 10-minututes.

For assay [4], the system named is undifferentiated RAW264 cells. Put plainly: Cell-death inducing activity on undifferentiated RAW264 cells, MTT method. Type of assay: cell-based, mouse. Particulars: for CC50: Mus musculus, RAW264.7, 24 hours incubation, MTT, read-out: ED50 level of cell-death inducing activity to undifferentiated RAW264 cells, MTT; for growth inhibitory action on the osteoclast precursor cells RAW264: even at a comparatively high concentration. How it is done: The cell-death inducing activities to the undifferentiated RAW264 cells were investigated by the MTT method (J. Immunol. Methods, Vol. 65, pp 55-63 (1983). The RAW 264 cells were plated on a 96-well plate at a density of 40,000 cells/100 μl and then incubated for 24 hours. After the 24-hour incubation, 50 μl of a culture medium containing a three-fold concentration of the drug was added and then incubated for 24 hours to investigate the cell-death inducing activity. Two hours before the measurement of the cell-death inducing activity, 15 μl of 0.5% MTT-PBS (phosphate buffer saline) was added and incubated. After that, the residue from which the culture solution was removed was dissolved in 100 μl of DMSO (dimethyl sulfoxide) and the absorbance at 570 nm (a reference wave length of 630 nm) was measured, followed by calculating the ED50 level of the cell-death inducing activity.
In general terms: Formazan colour is commonly taken as a measure of viable cells.

On to `CCCC[C@@]1(OC(=O)CCC(=O)O)CC[C@]2(CC[C@H](C)[C@@H](C/C=C(C)/C=C/[C@H](O[Si](C)(C)C(C)(C)C)[C@@H](C)/C=C/C(=O)O)O2)O[C@H]1/C=C/C(C)=C/C(=O)O` [Compound 2, C5-silylether], for which, in assay [1], the “increase in the level of serum calcium due to PTH” value is reported as “significant suppression” and the “duration of inhibitory action on bone resorption” value is “prolonged inhibitory action on bone resorption”. Moreover, in assay [2], the “inhibition of bone resorption induced by the PTH” value is “inhibited the bone resorption induced by the PTH at 10^−8M, 10^−7M, and 10^−6M, in a concentration-dependent manner”; the “inhibition of bone resorption due to vitamin D3 or IL-1” value is “could be also inhibited”. In addition, in assay [3], the EC50 was 6.6 µM and the “selective apoptosis inducing effect on the mature osteoclasts” value is recorded as “showed a selective apoptosis inducing effect”. Further, in assay [4], the CC50 turned out to be 89 µM and the “growth inhibitory action on the osteoclast precursor cells RAW264” value is “do not show any growth inhibitory action”.
For the compound `CCCC[C@@]1(OC(=O)CCC(=O)O)CC[C@]2(CC[C@H](C)[C@@H](C/C=C(C)/C=C/[C@H](OC(C)=O)[C@@H](C)/C=C/C(=O)O)O2)O[C@H]1/C=C/C(C)=C/C(=O)O` [Compound 27, C5-acetate], in assay [1], the “increase in the level of serum calcium due to PTH” value is “significant suppression” and the “duration of inhibitory action on bone resorption” value is given as “prolonged inhibitory action on bone resorption”. Besides, in assay [2], the “inhibition of bone resorption induced by the PTH” value is “inhibited the bone resorption induced by the PTH at 10^−8M, 10^−7M, and 10^−6M, in a concentration-dependent manner”; the “inhibition of bone resorption due to vitamin D3 or IL-1” value was “could be also inhibited”. Moreover, in assay [3], the EC50 worked out at 1.3 µM and the “selective apoptosis inducing effect on the mature osteoclasts” value is reported as “showed a selective apoptosis inducing effect”. Also, in assay [4], the CC50 was found to be 49 µM and the “growth inhibitory action on the osteoclast precursor cells RAW264” value is listed as “do not show any growth inhibitory action”.

Source of the values: US20060173069A1, “Therapeutic agent for hyperpotassemia and bone disease” (RIKEN, priority 2003, published 2006).
